From patent publication US20220073475A1, “5-MEMBERED HETEROARYL COMPOUNDS CONTAINING A HYDROXAMATE MOIETY AND THEIR USE” (UNIVERSITE DE LILLE, priority 2019, published 2022)

What was measured:
OPM2 cells = assay: CFZ potency increase, ratio of CC50 of CFZ alone / with compound; format: cell-based, human
Text: Human multiple myeloma cells OPM2 (ACC 50, DSMZ) are maintained at 0.3-0.7 10^6 cells/mL in RPMI1640 medium supplemented with GlutaMAX™, 10% fetal bovine serum and 1% penicillin-streptomycin.
(§1) We developed a cell-based, high content assay allowing the rapid detection and quantification of apoptotic cells. Caspase-3/7 activity was detected in real-time using the NucView™ 488 Caspase-3 substrate (Biotium), where the caspase-3/7 substrate peptide sequence DEVD is attached to a nucleic acid dye. The NucView™ 488 reagent crosses the plasma membrane to enter the cytoplasm, where the dye is unable to bind to DNA and remains non-fluorescent. Once the substrate has been cleaved by activated caspase-3/7 in apoptotic cells, the high-affinity DNA dye is released and migrates to the cell nucleus to stain the nucleus with a bright green fluorescence. All cell nuclei were also labeled with Hoechst 33342 (Ozyme).
For OPM2, briefly, nanoliters of compound and cytotoxic agent in DMSO stock solutions were first transferred and combined in 384-microtiter well plate using an Echo555 liquid handler (Labcyte). The exact volume of each solution to be transferred was calculated to achieve subsequently the target concentration in the 70 μL volume incubate. Final DMSO content was maintained at 0.2%. Then, 70 μL of cells treated with 1 μM NucView™ 488 and 20 ng/mL Hoechst 33342 were distributed to the plates to obtain a final density of 12,000 cells per well. The microplates were incubated at 37° C. and 5% CO2 in an automated LiCONiC STR240 UB cell incubator, and images were acquired at various times at 405 nm and 488 nm with the high-resolution automated confocal microscope INCell 6000 (GE). Four fields per well were read with the 20× objective in a confocal mode. The BioCel workstation was managed by VWorks automation control software
(§2) For all cells, Columbus software (Perkin) was used for image quantification and analysis. First, Hoechst 33342 staining was used for an automated detection of nuclei, in which the mean fluorescence intensity for NucView™ 488 was quantified. Inspection of control cells at initial time was used to set a threshold level of NucView™ 488 fluorescence to separate non apoptotic cells from apoptotic cells. Finally, for each well, the result was expressed as percentage of apoptotic cells in the total cell population. CC50 values were calculated from concentration-response curves by a nonlinear regression analysis at four parameters using Excel Fit or GraphPad Prim softwares.
(§3) Activity=(% of apoptotic cells with cytotoxic agent in combination with compound of the invention)/(% of apoptotic cells with cytotoxic agent alone). • Ratio of CC50: The CC50 of the cytotoxic agent was calculated in absence and in presence of a compound of the invention.
(§4) Activity=(CC50 of agent alone)/(CC50 of agent with compound). • Ratio of AUC. Activity=(Area of the dose-concentration curve of cytotoxic agent combined with one concentration of compound)/(Area of the dose-concentration curve of cytotoxic agent alone). (Lehar J. et al, 2008 (molecular systems biology 4:215)).

MCF7 cells = assay: as above; format: cell-based, human; conditions: MCF7, compound at 15 μM
Protocol: Human epithelial MCF7 cells (mammary gland adenocarcinoma) are maintained in EMEM medium supplemented with GlutaMAX™, 10% fetal bovine serum, 0.01 mg insulin and 1% penicillin-streptomycin.
as §1
(§5) For HeLa and MCF7 cells, briefly, cells were seeded in 384-microtiter well plate (1500 HeLa cells or 5000 MCF7 cells in 40 μL full medium per well) and let to attach overnight. Then the compound of the invention and the RE stressor were transferred to the cell culture plate using an Echo555 liquid handler (Labcyte) and 30 μL medium containing NucView™ and Hoechst 33342 were added. Final NucView™ 488 and Hoechst 33342 concentrations were 1 μM and 20 ng/mL, respectively. DMSO content was maintained at 0.2%. The microplates were incubated at 37° C. and 5% CO2 in an automated LiCONiC STR240 UB cell incubator, and images were acquired at various times at 405 nm and 488 nm with the high-resolution automated confocal microscope INCell 6000 (GE). Four fields per well were read with the 20× objective in a confocal mode. The BioCel workstation was managed by VWorks automation control software (Agilent).
as §2, §3, §4

HeLa cells = assay: as above; format: cell-based, human; conditions: compound at 7.5 μM
Text: Human HeLa cells (uterine cervical carcinoma) are maintained in DMEM medium supplemented with GlutaMAX™, 10% fetal bovine serum and 1% penicillin-streptomycin.
as §1, §5, §2, §3, §4

TLM1 cells = assay: X-ray radiation in combination with compound, propidium iodide dead cells, ratio of corrected AUC; format: cell-based, canine; conditions: for Potency of X-ray radiations in combination with compound (in words): TLM1; for Activity: ratio of corrected AUC of X-ray radiation in combination with compound / corrected AUC of X-ray radiation alone: TLM1, compound at 30 μM
Protocol: Canine melanoma TLM-1 cells are maintained in DMEM medium supplemented with GlutaMAX™, 10% fetal bovine serum, 1× Hepes and 1% penicillin-streptomycin.
TLM-1 cells were seeded with the BioTek MicroFlo™ dispenser in μClear® black 384-well plates (Greiner) at the density of 20,000 cells/mL in 50 μL. Compounds for pre-treatment were added 2 h after the seeding, using an Echo 550 (Labcyte). The next day, cells were washed five times with 40 μL media without phenol red with a plate washer (Hydrospeed, Tecan). Cells were irradiated with 4, 6, 8, 12, 16, 20 and 24 Gray (Gy). […] This step was repeated every 72 h after radiation. Plates were incubated at 37° C. and 5% CO2. […] 4 images per well were collected. Images were analyzed with Columbus software (Perkin Elmer). In this system we used predefined building blocks to measure different parameters on nuclei detected. We applied a threshold based on propidium iodide intensity in nuclei of controls to select and count dead cells. By dividing the number of dead cells by the number of nuclei detected we obtained the percentage of dead cells. AUC were determined in one experiment with triplicate incubates on percentage of cells labelled with propidium iodide and were corrected by the percentage of cells labelled with propidium iodide at 0 Gy. Ratio of AUC corrected was determined as followed: Activity=(Area of the dose-concentration curve of cytotoxic agent combined with one concentration of compound corrected by the effect of the compound alone at 0Gy)/(Area of the dose-concentration curve of radiation alone corrected by the effect of the vehicle at 0Gy).

[1] = OPM2, compound at 7.5 μM (Table 5)
[2] = OPM2, compound at 7.5 μM (Table 6)

Compound: O=C(C[C@@H](C/C=C/c1ccccc1)n1cc(CNC(=O)c2ccc(F)c(F)c2)nn1)NO [Compound 75, 3,4-difluoro-N-[[1-[(E,1R)-1-[2-(hydroxyamino)-2-oxo-ethyl]-4-phenyl-but-3-enyl]triazol-4-yl]methyl]benzamide]
- Activity: ratio (CC50 of CFZ alone)/(CC50 of CFZ in combination with compound of the invention) (OPM2 cells; [1]): 1.7
- Activity: ratio (CC50 of CFZ alone)/(CC50 of CFZ in combination with compound of the invention) (OPM2 cells; [2]): 1.7
- Activity: ratio (CC50 of CFZ alone)/(CC50 of CFZ in combination with compound of the invention) (MCF7 cells): 2.1
- Activity: ratio (CC50 of CFZ alone)/(CC50 of CFZ in combination with compound of the invention) (HeLa cells): 4.3

Compound: CC(NC(=O)c1ccc(F)c(F)c1)c1cn([C@@H](CC(=O)NO)Cc2ccc3ccccc3c2)nn1 (stereo in doubt) [Compound 86, 3,4-Difluoro-N-{1-[1-(1(R)-hydroxycarbamoylmethyl-2-naphthalen-2-yl-ethyl)-1H-[1,2,3]triazol-4-yl]-(R)-ethyl}-benzamide]
- Activity: ratio (CC50 of CFZ alone)/(CC50 of CFZ in combination with compound of the invention) (OPM2 cells; [1]): 1.7
- Activity: ratio (CC50 of CFZ alone)/(CC50 of CFZ in combination with compound of the invention) (OPM2 cells; [2]): 1.7
- Activity: ratio (CC50 of CFZ alone)/(CC50 of CFZ in combination with compound of the invention) (MCF7 cells): 1.7
- Activity: ratio (CC50 of CFZ alone)/(CC50 of CFZ in combination with compound of the invention) (HeLa cells): 2.6

Compound: O=C(CC(Cc1ccc2ccccc2c1)c1nc(CNC(=O)c2ccc(F)cc2)no1)NO (stereo not drawn) [Compound 27, 4-fluoro-N-[5-(1-hydroxycarbamoylmethyl-2-naphthalen-2-yl-ethyl)-[1,2,4]oxadiazol-3-ylmethyl]-benzamide]
- Activity: ratio (CC50 of CFZ alone)/(CC50 of CFZ in combination with compound of the invention) (OPM2 cells; [1]): 2.4
- Activity: ratio (CC50 of CFZ alone)/(CC50 of CFZ in combination with compound of the invention) (OPM2 cells; [2]): 2.4
- Activity: ratio (CC50 of CFZ alone)/(CC50 of CFZ in combination with compound of the invention) (MCF7 cells): 2.8
- Activity: ratio (CC50 of CFZ alone)/(CC50 of CFZ in combination with compound of the invention) (HeLa cells): 3.0

Compound: O=C(C[C@@H](Cc1ccc2ccccc2c1)n1cc(CNC(=O)c2ccc(F)c(F)c2)nn1)NO [Compound 54, 3,4-difluoro-N-[[1-[(1R)-3-(hydroxyamino)-1-(2-naphthylmethyl)-3-oxo-propyl]triazol-4-yl]methyl]benzamide]
- Activity: ratio (CC50 of CFZ alone)/(CC50 of CFZ in combination with compound of the invention) (OPM2 cells; [1]): 1.8
- Activity: ratio (CC50 of CFZ alone)/(CC50 of CFZ in combination with compound of the invention) (OPM2 cells; [2]): 1.8
- Activity: ratio (CC50 of CFZ alone)/(CC50 of CFZ in combination with compound of the invention) (MCF7 cells): 2.2
- Activity: ratio (CC50 of CFZ alone)/(CC50 of CFZ in combination with compound of the invention) (HeLa cells): 2.3

Compound: O=C(C[C@@H](Cc1ccc2ccccc2c1)n1cc(CC(=O)Nc2ccc(F)cc2)nn1)NO [Compound 58, 3-{4-[(4-Fluoro-phenylcarbamoyl)-methyl]-[1,2,3]triazol-1-yl}-N-hydroxy-4-naphthalen-2-yl-butyramide]
- Activity: ratio (CC50 of CFZ alone)/(CC50 of CFZ in combination with compound of the invention) (OPM2 cells; [1]): 1.4
- Activity: ratio (CC50 of CFZ alone)/(CC50 of CFZ in combination with compound of the invention) (OPM2 cells; [2]): 1.4
- Activity: ratio (CC50 of CFZ alone)/(CC50 of CFZ in combination with compound of the invention) (MCF7 cells): 2.0
- Activity: ratio (CC50 of CFZ alone)/(CC50 of CFZ in combination with compound of the invention) (HeLa cells): 2.7

Compound: O=C(C[C@@H](Cc1ccc2ccccc2c1)n1cc(C2CCCCN2C(=O)c2ccc(F)cc2)nn1)NO (stereo partly drawn) [Compound 187, (3R)-3-(4-(1-(4-fluorobenzoyl)piperidin-2-yl)-1H-1,2,3-triazol-1-yl)-N-hydroxy-4-(naphthalen-2-yl)butanamide]
- Potency of X-ray radiations in combination with compound (in words) (TLM1 cells): increase the potency
- Activity: ratio of corrected AUC of X-ray radiation in combination with compound / corrected AUC of X-ray radiation alone (TLM1 cells): 2.4
- Activity: ratio (CC50 of CFZ alone)/(CC50 of CFZ in combination with compound of the invention) (OPM2 cells; [1]): 3.4

Compound: CN(Cc1cn([C@@H](CC(=O)NO)Cc2ccc3c(c2)CCCC3)nn1)C(=O)c1ccc(F)c(F)c1 [Compound 169, (R)-3,4-difluoro-N-((1-(4-(hydroxyamino)-4-oxo-1-(5,6,7,8-tetrahydronaphthalen-2-yl)butan-2-yl)-1H-1,2,3-triazol-4-yl)methyl)-N-methylbenzamide]
- Potency of X-ray radiations in combination with compound (in words) (TLM1 cells): increase the potency
- Activity: ratio of corrected AUC of X-ray radiation in combination with compound / corrected AUC of X-ray radiation alone (TLM1 cells): 2.5
- Activity: ratio (CC50 of CFZ alone)/(CC50 of CFZ in combination with compound of the invention) (OPM2 cells; [1]): 3.3

Compound: CC(NC(=O)c1ccc(F)c(F)c1)c1cn([C@@H](CC(=O)NO)Cc2ccc3c(c2)CCCC3)nn1 (stereo partly drawn) [Compound 168, 3,4-difluoro-N-(1-(1-((R)-4-(hydroxyamino)-4-oxo-1-(5,6,7,8-tetrahydronaphthalen-2-yl)butan-2-yl)-1H-1,2,3-triazol-4-yl)ethyl)benzamide]
- Potency of X-ray radiations in combination with compound (in words) (TLM1 cells): increase the potency
- Activity: ratio of corrected AUC of X-ray radiation in combination with compound / corrected AUC of X-ray radiation alone (TLM1 cells): 2.4
- Activity: ratio (CC50 of CFZ alone)/(CC50 of CFZ in combination with compound of the invention) (OPM2 cells; [1]): 2.8

Compound: CC(C)C[C@H](NCc1cn([C@@H](CC(=O)NO)Cc2ccc3ccccc3c2)nn1)C(=O)OC(C)(C)C [Compound 20]
- Activity: ratio (CC50 of CFZ alone)/(CC50 of CFZ in combination with compound of the invention) (OPM2 cells; [1]): 2.1
- Activity: ratio (CC50 of CFZ alone)/(CC50 of CFZ in combination with compound of the invention) (OPM2 cells; [2]): 2.1
- Activity: ratio (CC50 of CFZ alone)/(CC50 of CFZ in combination with compound of the invention) (MCF7 cells): 3.4
- Activity: ratio (CC50 of CFZ alone)/(CC50 of CFZ in combination with compound of the invention) (HeLa cells): 6.3

Compound: O=C(C[C@@H](Cc1ccc2ccccc2c1)n1cc(C2CSCN2C(=O)c2ccc(F)cc2)nn1)NO (stereo partly drawn) [Compound 186, (3R)-3-(4-(3-(4-fluorobenzoyl)thiazolidin-4-yl)-1H-1,2,3-triazol-1-yl)-N-hydroxy-4-(naphthalen-2-yl)butanamide]
- Potency of X-ray radiations in combination with compound (in words) (TLM1 cells): increase the potency
- Activity: ratio of corrected AUC of X-ray radiation in combination with compound / corrected AUC of X-ray radiation alone (TLM1 cells): 2.0
- Activity: ratio (CC50 of CFZ alone)/(CC50 of CFZ in combination with compound of the invention) (OPM2 cells; [1]): 2.9

Compound: O=C(C[C@@H](Cc1ccc2c(c1)CCCC2)n1cc(CNC(=O)c2ccc(F)c(F)c2)nn1)NO [Compound 144, (R)-3,4-difluoro-N-((1-(4-(hydroxyamino)-4-oxo-1-(5,6,7,8-tetrahydronaphthalen-2-yl)butan-2-yl)-1H-1,2,3-triazol-4-yl)methyl)benzamide]
- Potency of X-ray radiations in combination with compound (in words) (TLM1 cells): increase the potency
- Activity: ratio of corrected AUC of X-ray radiation in combination with compound / corrected AUC of X-ray radiation alone (TLM1 cells): 2.4
- Activity: ratio (CC50 of CFZ alone)/(CC50 of CFZ in combination with compound of the invention) (OPM2 cells; OPM2, compound at a concentration of 3.7 μM (Table 5, footnote b)): 1.8
